In patent EP3423441B1, “IODINATED ANALOGS OF CHOLINE, METHODS OF PREPARATION THEREOF, AND USE THEREOF AS MEDICAMENTS” (Univerzita Palackého v Olomouci, priority 2016, dated 2017):
pIC50: −log10 of the molar value.

How the values were obtained:
[1] = Microsomal stability; conditions: hepatic microsomes
[2] = Stability in the plasma
[3] = Binding to plasmatic proteins; conditions: plasma
[4] = tested on: choline transporters; assay: In vitro determination of IC50: inhibition of [^3H]choline chloride accumulation in PC-3 cells; type: cell-based; conditions: cell line PC-3 (human prostate carcinoma), [^3H]choline chloride 0.81 × 10^-6 M, 60 min at 37 °C
Description: IC50 value corresponds to a concentration of the given analog of choline which reduces the accumulation of choline chloride, the natural ligand of choline transporterss, to 50 % of the maximum value. For the assay, the tritium labeled choline chloride, i.e. [^3H]choline chloride, was used. The assay was performed in vitro on the cell line PC-3 derived from a human prostate carcinoma, which is known to overexpress choline transporters. […] As the negative control, a cell line of human ovarian carcinoma SKOV3 prepared to the confluence of 90 % in 24-well plates was used.
The cultivation medium was removed from the thus prepared cells in cultivation plates and the cells were rinsed with phosphate buffered saline (PBS). Subsequently, 0.3 mL of "incubation buffer" (25 mM Tris/HCl, 5.4 mM KCl, 1.8 mM CaCl2, 0.8 mM MgSO4, 5 mM glucose, 140 mM NaCl, pH adjusted to 7.4) was added to the cells. Then 0.1 mL of the solution of the tested substance (analog of choline) in the incubation buffer was added to the PC-3 cells in such concentrations, that after adding [^3H]choline chloride the resulting concentrations of the tested analog would be following: 0 M, 10^-8 M, 10^-7 M, 10^-6 M, 5 × 10^-6 M, 10^-5 M, 10^-4 M, 5 × 10^-4 M, 10^-3 M, 5×10^-3 M. Each concentration was tested in triplicate.
Subsequently, all cells prepared in this manner (PC-3 and SKOV3) were incubated with the analogs of choline for 15 minutes at the temperature of 37 °C.
Then 0.1 mL of the solution of the [^3H]choline chloride in the incubation buffer was added to all cell-containing wells, so that 0.1 mL of the solution had the activity of 15 kBq and that the final concentration of the [^3H]choline chloride in the medium with the cells was 0.81 × 10^-6 M. The cells were then incubated at 37 °C for a period of 60 min. After the incubation, all buffer solution was removed from the cells. The cells were rinsed with PBS, which was subsequently removed, and 0.2 mL of aqueous NaOH solution (0.1 M) was added to each well. The cells were incubated with sodium hydroxide for 30 min at 37 °C. The lysate was then homogenized with a pipette and 10 µL of the lysate were used for the determination of protein concentration by bicinchonic acid assay (BCA).
The remaining lysate (180 µL) was quantitatively transferred into scintillation vials containing a previously prepared scintillation solution (2 mL of the solution in each vial). Each well was then additionally rinsed with 0.2 mL of pure water and this solution was added to the corresponding scintillation vials. Scintillation vials were closed and their content was stirred on a shaker.
To another three scintillation vials containing scintillation solution (2 mL of the solution in each vial) the standard samples of [^3H]choline chloride were added (i.e. 10 µl of the [^3H]choline chloride solution together with 180 µl of aqueous NaOH solution (0.1 M) and 200 µl of water). The vials were closed and their content was stirred on the shaker.
Subsequently, radioactivity of each scintillation vial was measured using a liquid scintillation counter (Tri-Carb 2910TR Liquid Scintillation Counter, PerkinElmer). The recorded counts per second (cps) were then used to calculate the accumulation of [^3H]choline chloride in the individual cell samples. […] These values were used to construct a sigmoid curve of dependence between the rate of [^3H]choline chloride accumulation and the competing ligand (analog of choline) concentration(inhibition curve, Figure 2). The IC50 values were calculated from these inhibition curves.

[5] = in vitro; conditions: liver microsomes

What does the source list for `Cc1ccc(S(=O)(=O)[O-])cc1.OC1C[N+]2(Cc3ccccc3I)CCC1CC2` (stereo not shown) [Example 18, 3-hydroxy-1-(2-iodobenzyl)quinuclidin-1-ium 4-methylbenzenesulfonate]?
Microsomal stability t1l2 [1]: 22.0 min; Plasma stability (120 min) [2]: 73.4%; fraction unbound [3]: 0.903; pIC50 [4]: 3.74; microsomal CLint [5]: 63 µL/min/mg

With `C[N+](C)(CCO)CCCCOc1ccc(-c2ccccc2)cc1I` [Example 39, (2-hydroxyethyl)-{4-[(3-iodo-[1,1'-biphenyl]-4-yl)oxy]butyl}-dimethylammonium bromide] as the compound, how does the pIC50 [4] read?
The pIC50 was 5.89.

For `COc1ccc(CC[N+](C)(C)CCO)cc1I.Cc1ccc(S(=O)(=O)[O-])cc1` [Example 1, (2-hydroxyethyl)-[2-(3-iodo-4-methoxyphenyl)ethyl]-dimethylammonium 4-methylbenzenesulfonate], which “Microsomal stability t1l2” value [1] is on record?
Its value is 165.0 min.

And the “Plasma stability (120 min)” value [2]?
Its value is 28.4%.

And the fraction unbound [3]?
Its fraction unbound is 0.805.

What about the pIC50 [4] of the same compound?
The pIC50 was 4.33.

What about the microsomal CLint [5] of the same compound?
Its microsomal CLint is 8.4 µL/min/mg.

With `C[N+](C)(CCO)CCc1ccc(I)s1` [Example 33, (2-hydroxyethyl)-[2-(5-iodothiophen-2-yl)ethyl]-dimethylammonium 4-methylbenzenesulfonate] as the compound, how does the pIC50 [4] read?
Its pIC50 is 6.35.

What does the source list for `C[N+](C)(CCO)Cc1ccccc1I.Cc1ccc(S(=O)(=O)[O-])cc1` [Example 19, (2-hydroxyethyl)-(2-iodobenzyl)-dimethylammonium 4-methylbenzenesulfonate]?
Microsomal stability t1l2 [1]: 8.3 min; Plasma stability (120 min) [2]: 91.3%; fraction unbound [3]: 0.661; pIC50 [4]: 3.80; microsomal CLint [5]: 166 µL/min/mg

For `COc1c(I)cc(CC[N+](C)(C)CCO)cc1I.Cc1ccc(S(=O)(=O)[O-])cc1` [Example 3, (2-hydroxyethyl)-[2-(3,5-diiodo-4-methoxyphenyl)ethyl]-dimethylammonium 4-methylbenzenesulfonate], which “Microsomal stability t1l2” value [1] is on record?
Its value is 1.3 min.

What about the “Plasma stability (120 min)” value [2] of the same compound?
Its value is 76.4%.

What about the fraction unbound [3] of the same compound?
Its fraction unbound is 0.512.

What about the pIC50 [4] of the same compound?
Its pIC50 is 4.60.

What about the microsomal CLint [5] of the same compound?
Its microsomal CLint is 1040 µL/min/mg.

For `Cc1ccc(S(=O)(=O)[O-])cc1.OCCN1CC[N+](CCO)(Cc2ccccc2I)CC1` [Example 17, 1,4-bis(2-hydroxyethyl)-1-(2-iodobenzyl)piperazin-1-ium 4-methylbenzenesulfonate], which “Microsomal stability t1l2” value [1] is on record?
Its value is 1732.5 min.

What about the “Plasma stability (120 min)” value [2] of the same compound?
Its value is 58.4%.

What about the fraction unbound [3] of the same compound?
The fraction unbound was 0.943.

And the pIC50 [4]?
Its pIC50 is 3.13.

And the microsomal CLint [5]?
The microsomal CLint was 0.8 µL/min/mg.

With `C[N+](C)(CCO)Cc1ccc(I)cc1` [Example 11, (2-hydroxyethyl)-(4-iodobenzyl)-dimethylammonium bromide] as the compound, how does the pIC50 [4] read?
The pIC50 was 3.82.

With `C[N+](C)(CCO)CCOc1cccc(I)c1` [Example 27, (2-hydroxyethyl)-[2-(3-iodophenoxy)ethyl]-dimethylammonium bromide] as the compound, how does the pIC50 [4] read?
The pIC50 was 4.66.

With `C[N+](C)(CCO)CCOc1ccc(I)cc1` [Example 25, (2-hydroxyethyl)-[2-(4-iodophenoxy)ethyl]-dimethylammonium bromide] as the compound, how does the pIC50 [4] read?
Its pIC50 is 4.64.

Which results are given for `C[N+]1(Cc2ccccc2I)CCCC(O)C1.Cc1ccc(S(=O)(=O)[O-])cc1` (stereo not shown) [Example 16, 3-hydroxy-1-(2-iodobenzyl)-1-methylpiperidin-1-ium 4-methylbenzenesulfonate]?
Microsomal stability t1l2 [1]: 119.5 min; Plasma stability (120 min) [2]: 79.0%; fraction unbound [3]: 0.956; pIC50 [4]: 3.62; microsomal CLint [5]: 11.6 µL/min/mg

With `CCCCCCOc1ccc(CCC[N+](C)(C)CCO)cc1I` [Example 21, [3-(4-hexyloxy-3-iodophenyl)propyl]-(2-hydroxyethyl)-dimethylammonium 4-methylbenzenesulfonate] as the compound, how does the pIC50 [4] read?
The pIC50 was 6.37.

With `CCCCCCCCCCOc1ccc(CCC[N+](C)(C)CCO)cc1I` [Example 22, [3-(4-decyloxy-3-iodophenyl)propyl]-(2-hydroxyethyl)-dimethylammonium methanesulfonate] as the compound, how does the pIC50 [4] read?
The pIC50 was 5.72.

With `OCC[N+]1(Cc2ccc(I)cc2)CCCC1` [Example 20, 1-(2-hydroxyethyl)-1-(4-iodobenzyl)pyrrolidin-1-ium 4-methylbenzenesulfonate] as the compound, how does the pIC50 ([4]; 4-methylbenzenesulfonate) read?
Its pIC50 is 5.20.

What about the microsomal CLint [5] of the same compound?
The microsomal CLint was 310 µL/min/mg.

With `OCC[N+]1(Cc2ccc(I)cc2)CCCC1` [Example 13, 1-(2-hydroxyethyl)-1-(4-iodobenzyl)pyrrolidin-1-ium bromide] as the compound, how does the pIC50 [4] read?
The pIC50 was 4.54.

With `C[N+](C)(CCO)Cc1cccc(I)c1` [Example 9, (2-hydroxyethyl)-(3-iodobenzyl)-dimethylammonium methanesulfonate] as the compound, how does the pIC50 [4] read?
The pIC50 was 4.00.

With `C[N+](C)(CCO)CCCCCCOc1cccc(I)c1` [Example 29, (2-hydroxyethyl)-[6-(3-iodophenoxy)hexyl]-dimethylammonium bromide] as the compound, how does the pIC50 [4] read?
Its pIC50 is 7.36.

With `OCC[N+]1(CCCCOc2ccccc2I)CCCC1` [Example 32, 1-(2-hydroxyethyl)-1-[4-(2-iodophenoxy)butyl]pyrrolidin-1-ium bromide] as the compound, how does the pIC50 [4] read?
The pIC50 was 5.29.

With `C[N+](C)(CCO)CCCCCCOc1cccnc1I` [Example 37, (2-hydroxyethyl)-{6-[(2-iodopyridin-3-yl)oxy]hexyl}-dimethylammonium bromide] as the compound, how does the pIC50 [4] read?
Its pIC50 is 5.85.

With `OCC[N+]1(CCOc2ccccc2I)CCCC1` [Example 24, 1-(2-hydroxyethyl)-1-[2-(2-iodophenoxy)ethyl]pyrrolidin-1-ium bromide] as the compound, how does the pIC50 [4] read?
The pIC50 was 5.33.

With `OCC[N+]1(CCc2ccc(I)s2)CCCC1` [Example 34, 1-(2-hydroxyethyl)-1-[2-(5-iodothiophen-2-yl)ethyl]pyrrolidin-1-ium 4-methylbenzenesulfonate] as the compound, how does the pIC50 [4] read?
Its pIC50 is 5.00.

With `OCC[N+]1(Cc2ccc(I)cc2)CCOCC1` [Example 35, 4-(2-hydroxyethyl)-4-(4-iodobenzyl)morpholin-4-ium bromide] as the compound, how does the pIC50 [4] read?
The pIC50 was 3.57.

With `OCC[N+]1(CCOc2ccc(I)cc2)CCCC1` [Example 26, 1-(2-hydroxyethyl)-1-[2-(4-iodophenoxy)ethyl]pyrrolidin-1-ium bromide] as the compound, how does the pIC50 [4] read?
The pIC50 was 4.74.

With `C[N+](C)(CCO)CCCCOc1ccccc1I` [Example 31, (2-hydroxyethyl)-[4-(2-iodophenoxy)butyl]-dimethylammonium bromide] as the compound, how does the pIC50 [4] read?
Its pIC50 is 4.96.

With “(2-hydroxyethyl)-{4-[(2-iodo-6-methylpyridin-3-yl)oxy]butyt}-dimethylammonium bromide [Example 38]” as the compound, how does the pIC50 [4] read?
The pIC50 was 4.74.

With `OCC[N+]1(CCCCCCOc2cccc(I)c2)CCCC1` [Example 30, 1-(2-hydroxyethyl)-1-[6-(3-iodophenoxy)hexyl]pyrrolidin-1-ium bromide] as the compound, how does the pIC50 [4] read?
The pIC50 was 6.04.

With `CC[N+](CC)(CCO)Cc1ccc(I)cc1` [Example 12, diethyl-(2-hydroxyethyl)-(4-iodobenzyl)ammonium bromide] as the compound, how does the pIC50 [4] read?
The pIC50 was 4.10.

With `C[N+](C)(CCO)CCCCCCOc1ccc(I)c([N+](=O)[O-])c1` [Example 40, (2-hydroxyethyl)-[6-(4-iodo-3-nitrophenoxy)hexyl]-dimethylammonium bromide] as the compound, how does the pIC50 [4] read?
The pIC50 was 6.85.

With `C[N+](C)(CF)CCO` [Fluoromethylcholine, reference compound] as the compound, how does the pIC50 [4] read?
Its pIC50 is 4.80.

With `C[N+](C)(C)CCO` [Choline] as the compound, how does the pIC50 [4] read?
The pIC50 was 5.43.

With `OCC[N+]1(Cc2ccccc2I)CCOCC1` [Example 36, 4-(2-hydroxyethyl)-4-(2-iodobenzyl)morpholin-4-ium chloride] as the compound, how does the pIC50 [4] read?
Its pIC50 is 4.37.

With `OCC[N+]1(Cc2cccc(I)c2)CCCC1` [Example 10, 1-(2-hydroxyethyl)-1-(3-iodobenzyl)pyrrolidin-1-ium methanesulfonate] as the compound, how does the pIC50 [4] read?
Its pIC50 is 4.89.

With `OCC[N+]1(CCOc2cccc(I)c2)CCCC1` [Example 28, 1-(2-hydroxyethyl)-1-[2-(3-iodophenoxy)ethyl]pyrrolidin-1-ium bromide] as the compound, how does the pIC50 [4] read?
The pIC50 was 4.82.
